Where two headings read alike, the source gives them in different places.
How the values were obtained:
[1] = tested on: Zymoseptoria tritici; experiment: Leaf Blotch of Wheat fungicidal activity (SEPTTR); assay type: in vivo; details: Low Volume Cereal Activity at 121.5 g/Ha
[2] = tested on: Puccinia triticina; experiment: Wheat Brown Rust fungicidal activity (PUCCRT); assay type: in vivo; details: Low Volume Cereal Activity at 121.5 g/Ha
[3] = tested on: Venturia inaequalis; experiment: Apple Scab fungicidal activity (VENTIN); assay type: in vivo; details: 24 h, high volume, 1 Day Protectant, read-out: VENTIN % Control rating
Protocol: All fungicides were evaluated using the aforementioned method for their activity vs. all target diseases, unless stated otherwise. Wheat leaf blotch and brown rust activity were also evaluated using track spray applications, in which case the fungicides were formulated as EC formulations, containing 0.1% Trycol 5941 in the spray solutions. Wheat plants (variety Yuma) were grown from seed in a greenhouse in 50% mineral soil/50% soil-less Metro mix until the first leaf was fully emerged, with 7-10 seedlings per pot. These plants were inoculated with an aqueous spore suspension of Zymoseptoria tritici either prior to or after fungicide treatments. After inoculation the plants were kept in 100% relative humidity (one day in a dark dew chamber followed by two to three days in a lighted dew chamber at 20° C.) to permit spores to germinate and infect the leaf. The plants were then transferred to a greenhouse set at 20° C. for disease to develop. When disease symptoms were fully expressed on the 1st leaves of untreated plants, infection levels were assessed on a scale of 0 to 100 percent disease severity. Percent disease control was calculated using the ratio of disease severity on treated plants relative to untreated plants. […] Seedlings with two expanding young leaves at the top (older leaves at bottom of the plants were trimmed) were used in the test. Plants were inoculated with a spore suspension of Venturia inaequalis 24 hr after fungicide treatment and kept in a 22° C. dew chamber with 100% relative humidity for 48 hr, and then moved to a greenhouse set at 20° C. for disease to develop. Fungicide formulation, application and disease assessment on the sprayed leaves followed the procedures as described in the Example A.

[4] = tested on: Cercospora beticola; experiment: Leaf Spot of Sugar Beets fungicidal activity (CERCBE); assay type: in vivo; details: 24 h, sugar beet, high volume, 1 Day Protectant, read-out: CERCBE % Control rating
Protocol: All fungicides were evaluated using the aforementioned method for their activity vs. all target diseases, unless stated otherwise. Wheat leaf blotch and brown rust activity were also evaluated using track spray applications, in which case the fungicides were formulated as EC formulations, containing 0.1% Trycol 5941 in the spray solutions. Wheat plants (variety Yuma) were grown from seed in a greenhouse in 50% mineral soil/50% soil-less Metro mix until the first leaf was fully emerged, with 7-10 seedlings per pot. These plants were inoculated with an aqueous spore suspension of Zymoseptoria tritici either prior to or after fungicide treatments. After inoculation the plants were kept in 100% relative humidity (one day in a dark dew chamber followed by two to three days in a lighted dew chamber at 20° C.) to permit spores to germinate and infect the leaf. The plants were then transferred to a greenhouse set at 20° C. for disease to develop. When disease symptoms were fully expressed on the 1st leaves of untreated plants, infection levels were assessed on a scale of 0 to 100 percent disease severity. Percent disease control was calculated using the ratio of disease severity on treated plants relative to untreated plants. Sugar beet plants (variety HH88) were grown in soil-less Metro mix and trimmed regularly to maintain a uniform plant size prior to test. Plants were inoculated with a spore suspension 24 hr after fungicide treatments. Inoculated plants were kept in a dew chamber at 22° C. for 48 hr then incubated in a greenhouse set at 24° C. under a clear plastic hood with bottom ventilation until disease symptoms were fully expressed. Fungicide formulation, application and disease assessment on the sprayed leaves followed the procedures as described in the Example A.

[5] = tested on: Alternaria solani; experiment: Tomato Early Blight fungicidal activity (ALTESO); assay type: in vivo; details: 24 h, high volume, 1 Day Protectant, read-out: ALTESO % Control rating
Protocol: All fungicides were evaluated using the aforementioned method for their activity vs. all target diseases, unless stated otherwise. Wheat leaf blotch and brown rust activity were also evaluated using track spray applications, in which case the fungicides were formulated as EC formulations, containing 0.1% Trycol 5941 in the spray solutions. Wheat plants (variety Yuma) were grown from seed in a greenhouse in 50% mineral soil/50% soil-less Metro mix until the first leaf was fully emerged, with 7-10 seedlings per pot. These plants were inoculated with an aqueous spore suspension of Zymoseptoria tritici either prior to or after fungicide treatments. After inoculation the plants were kept in 100% relative humidity (one day in a dark dew chamber followed by two to three days in a lighted dew chamber at 20° C.) to permit spores to germinate and infect the leaf. The plants were then transferred to a greenhouse set at 20° C. for disease to develop. When disease symptoms were fully expressed on the 1st leaves of untreated plants, infection levels were assessed on a scale of 0 to 100 percent disease severity. Percent disease control was calculated using the ratio of disease severity on treated plants relative to untreated plants. Tomato plants (variety Outdoor Girl) were propagated in soil-less Metro mix, with each pot having one plant, and used when 12 to 14 days old. Test plants were inoculated with an aqueous spore suspension of Alternaria solani 24 hr after fungicide treatments. After inoculation the plants were kept in a dew room at 22° C. with 100% relative humidity for 48 hr to permit spores to germinate and infect the leaf. The plants were then transferred to a growth room at 22° C. for disease to develop. Fungicide formulation, application and disease assessment on the sprayed leaves followed the procedures as described in the Example A.

[6] = tested on: Phakopsora pachyrhizi; experiment: Asian Soybean Rust fungicidal activity (PHAKPA); details: Phakopsora pachyrhizi, in Glycine max
[7] = 24 h, 1 Day Protectant, read-out: SEPTTR 1DP (Wheat Leaf Blotch, 1 Day Protectant)
[8] = 72 h, 3 Day Curative, read-out: SEPTTR 3DC (Wheat Leaf Blotch, 3 Day Curative)
[9] = 24 h, 1 Day Protectant, read-out: PUCCRT 1DP (Wheat Brown Rust, 1 Day Protectant)
[10] = 72 h, 3 Day Curative, read-out: PUCCRT 3DC (Wheat Brown Rust, 3 Day Curative)
[11] = 24 h, read-out: PHAKPA 1DP % Control rating, soybean, high volume, 25 ppm, 1 Day Protectant
[12] = 72 h, read-out: PHAKPA 3DC % Control rating, soybean, high volume, 25 ppm, 3 Day Curative

Row | Compound | pest or weed control at 121.5 g/ha [1, 7] | pest or weed control at 121.5 g/ha [1, 8] | pest or weed control at 121.5 g/ha [2, 9] | pest or weed control at 121.5 g/ha [2, 10] | pest or weed control at 100 ppm [3] | pest or weed control at 100 ppm [4] | pest or weed control at 100 ppm [5] | pest or weed control at 25 ppm [6, 11] | pest or weed control at 25 ppm [6, 12]
1 | COc1ccnc(C(=O)N[C@@H](C)C(=O)O[C@H](C)[C@@H](Oc2ccccc2)c2ccccc2)c1OCOC(C)=O [Example 185] | > 80% | > 80% | > 80% | > 80% | < 80% | < 80% | < 80% | < 80% | < 0%
2 | COc1ccnc(C(=O)N[C@H](C)C(=O)O[C@H](C)[C@@H](Oc2ccccc2)c2ccccc2)c1OCOC(C)=O [Example 186] | < 80% | < 80% | < 0% | < 0% | < 80% | < 80% | < 80% | < 0% | < 0%

— patent US20180002288A1, “USE OF PICOLINAMIDES AS FUNGICIDES” (DOW AGROSCIENCES LLC, priority 2014, published 2018)
